This passage reports IC50 and inhibition results from ChEMBL document CHEMBL3217413, “Chemical space as a source for new drugs” (Medchemcomm, 2010).

Assay [1] deals with Human immunodeficiency virus. Briefly: Antiviral activity against HIV. Particulars: Human immunodeficiency virus 1. The class given is functional, organism-based.
In assay [2] the target is Adrenergic receptor alpha-1 (Homo sapiens) (UniProt P35348+P25100+P35368). The assay is described as follows: Inhibition of alpha1 adrenergic receptor (unknown origin) at 10 uM by radioligand displacement assay. The class given is protein assay. For orientation: Loss of bound radioactivity is the signal in a displacement assay; it reports binding, not function.
Assay [3] deals with Glutamate [NMDA] receptor. The assay is described as follows: (§1) Inhibition of NMDA receptor glycine binding site (unknown origin). Also noted: species or system Homo sapiens.
A short description of assay [4]: Inhibition of estrogen receptor (unknown origin). Also noted: species or system Homo sapiens.
In a further assay the test system is Nucleic Acid. Briefly: Inhibition of TAT/TAR RNA interaction in HIV1. The class given is nucleic-acid assay, Human immunodeficiency virus 1.
In assay [5] the target is Glutamate [NMDA] receptor (Homo sapiens) (UniProt Q05586+Q12879+Q13224+O15399+O60391+Q14957+Q8TCU5). The description is as §1.

Active and inactive are the calls of the source. The rule behind the calls is not given here.

In assay [1], `CC(C)n1c(O)nnc1Sc1cccc(C(F)(F)F)c1` returned an IC50 of 80 µM. In assay [2], `OCc1ccccc1C1CCCNC1` (stereo not given) showed an inhibition above 50%. As for `CCNCCC(=O)NCCC(=O)O`, in assay [3], the IC50 was determined as 60 µM. Consider `C[C@H](N)CC(=O)NCC(=O)O`, for which the half-maximal inhibitory concentration (IC50) in assay [3] stood at 28 µM. In assay [3], `NC[C@@H]1NC(=O)CNC1=O` showed an IC50 of 370 µM. `C[C@@H](NCCN)C(=O)O`: the half-maximal inhibitory concentration (IC50) in assay [3] was 112 µM. In assay [4], `Oc1ccc(-c2cc3ccc(O)cc3s2)cc1` [RALOXIFENE CORE] had an IC50 of 0.34 µM. For `CCOc1cccc(CN(c2cccc(F)c2)C2CCNCC2)c1`, the IC50 in the assay with Nucleic Acid worked out at 500 µM. In turn, `NCCCC(=O)NCC(=O)O` registered a half-maximal inhibitory concentration (IC50) in assay [3] of 61 µM. `NC[C@H]1CNC(=O)C(=O)N1`: in assay [5], the inhibition result is “inactive”.

One may read the IC50 as the concentration that gives 50% inhibition. A higher IC50 goes with weaker potency. Broadly, the inhibition is the relative decrease from the control value, in per cent.
